Legend:
[1] = Human pharmacokinetic, safety and tolerability study (oral, intravenous, intranasal cross-over); conditions: metabolite after 1 mg clonazepam
Method: The human pharmacokinetics, safety, and tolerability of the clonazepam compositions of the present invention formulated for intranasal delivery for therapeutic applications are evaluated using standard clinical procedures. Clonazepam compositions formulated for intranasal delivery are provided, for example, for application by the participants to intranasal mucosa.
A primary objective of initial studies in humans is to determine and compare pharmacokinetic profiles of three dosage forms of clonazepam: oral, i.v., and intranasal, following single administration. An example of such a study in humans is a cross-over study performed in 12 healthy male volunteers. Plasma and urine level of clonazepam and 7-amino-clonazepam are determined, for example, using HPLC and UV detection. […] Further the initial studies in humans are used to determine local tolerability of intranasal formulation using questionnaire and the Visual Analog Scale (VAS). VAS is a validated instrument that has been used in numerous studies to quantify subjective opening of the nasal passages. In addition, cognitive, sleepiness and mood effects are evaluated using questionnaires and scales (see, e.g., Example 10 below). Further, attention and vigilance may be evaluated using, for example, LEEDS Psychomotor Multiple Choice Reaction Time (MCRT) testing.
A human pharmacokinetic study was carried out as described in Example 8.
15 young, healthy male volunteers received a single dose of 1 mg clonazepam by oral, intravenous and intranasal routes in a three-period cross-over design.

[2] = Spray pattern of solvent matrices from Pfeiffer unit-dose devices; assay type: physicochemical; conditions: 100 μL, Pfeiffer unit-dose device, 20-25° C.
Method: (§1) Fourteen representative solvent matrices used for clonazepam formulations were tested for spray pattern and compared with water. The solvent mixtures were made up, spiked with minute amounts of Coomassie Brilliant Blue Dye and 100 μL were subsequently filled into Pfeiffer unit-dose devices (Pfeiffer of America, Princeton, N.J.). To measure the spray pattern, the devices were actuated below a sheet of paper that was located 3 cm above the spray nozzle. All measurements were made at ambient room temperature (20-25° C.). The smallest (Dmin) and the largest (Dmax) diameter of the blue pattern formed on the sheet of paper were measured and the results used to calculate the Dmax/Dmin ratio, the area of the pattern and the average spray angle. The plume area at 3 cm was calculated using the equation for the area of an ellipse using the half of the two diameters as the ellipse radii. Viscosity of all formulations was measured using Brookfield DV-I viscometer (Brookfield Engineering Laboratories, Inc., Middleboro, Mass.).

[3] = Viscosity of solvent matrices; assay type: physicochemical; conditions: for measured viscosity: Gilmont falling ball viscometer
Method: as §1
As weather may dictate substantially different conditions of use, the effect of temperature on viscosity was determined. A Gilmont falling ball viscometer was filled with diethylene glycol monoethyl ether and calibrated for several hours at each temperature.

Nc1ccc2c(c1)C(c1ccccc1Cl)=NCC(=O)N2 [7-Amino-clonazepam]
mean AUCt ([1]; intranasal route): 16.9 ng·h/mL | mean Cmax ([1]; intranasal route, 24-hour sampling): 1.17 ng/mL | mean AUCt ([1]; intravenous route): approximately 30 ng·h/mL | mean Cmax ([1]; intravenous route): approximately 2 ng/mL | mean AUCt ([1]; oral route): approximately 30 ng·h/mL | mean Cmax ([1]; oral route): approximately 2 ng/mL

O [Water]
Plume area at 3 cm (cm^2) [2]: 15.52 cm^2 | Ratio Dmax/Dmin [2]: 1.10 | Avg. viscosity (cP) ([3]; Brookfield DV-I viscometer, solvent matrix without clonazepam): 1.0 cP

CCOCCOCCO [diethylene glycol monoethyl ether, Diethylene glycol monoethyl ether]
measured viscosity ([3]; 8° C.): 5.4 cP | measured viscosity ([3]; 23° C.): 3.8 cP | measured viscosity ([3]; 40° C.): 3.1 cP | measured viscosity ([3]; −17° C.): 6.6 cP
